Test results published in patent publication US9458102B2 (priority 2011, dated 2016).

Tests used:
[1] = test system: heteromeric rod CNG channels consisting of CNGA1 and CNGB1 subunits; test: CNG channel block at subsaturating cGMP (state dependence of block); type: cell-based; settings: subsaturating cGMP (50 or 100 μM), +50 mV, normalized to KD at 2 mM cGMP
Source text: KD values at saturating cGMP were corrected for ion accumulation. Solid lines indicate simulations for exclusive closed channel blockers, using KD/KDsat=(1−Fsat)/(1−FsatI/Imax), where Fsat is the estimated fraction of open heteromeric rod channels in saturating cGMP assuming Fsat=0.3 (a), 0.56 (b), or 0.78 (c). The dotted line is a simulation for a blocker with no preference for state, or KD/KDsat=1. The dashed line is a simulation for an exclusive open channel blocker, using KD/KDsat=(I/Imax)^−1.
The solid lines in FIG. 4 marked a, b, and c represent the expected relationship between KD and the fraction of closed channels for an exclusive closed channel blocker. Each of a, b, and c uses one estimate for the probability of closed heteromeric retinal rod channels at saturating cGMP. The simulations are described in the following references: Matthews G et al, J Physiol 403, 389-405 (1988); Taylor W R & Baylor D A, J Physiol 483 567-582 (1995); and Bucossi G et al, Biophys J 72, 1165-1181 (1997), all of which are incorporated by reference herein. The dotted line represents a simulation of a blocker with no preference as to conformational of the channel. The dashed line represents a simulation for an exclusive open channel blocker.
Recordings from inside-out excised patches were made 3-7 days after oocyte injection on an Axopatch 1D® amplifier (Axon Instruments, Foster City, Calif.). Briefly, oocyte vitelline membranes were removed in solution containing 200 mM K aspartate, 20 mM KCl, 1 mM MgCl2, 10 mM EGTA, 10 mM HEPES, pH 7.4. Oocytes were placed in a recording chamber in a solution containing 130 mM NaCl, 2 mM HEPES, 0.02 mM EDTA, 1 mM EGTA, pH 7.6, and borosilicate glass electrodes (1-3 MΩ) were filled with identical solution. Macroscopic currents were filtered at 1 kHz and sampled at 2 kHz using pCLAMP 8.0® software (Axon Instruments). Channels were either fully activated with 2 mM or partially activated with 50 and 100 μM cGMP. […] Glass syringes and Teflon tubing were used to minimize the binding of compounds to surfaces; concentrations passing through the perfusion system were verified by absorbance. Current traces were digitally filtered at 300 Hz (Gaussian) and averaged using Clampfit 8.2® software. Currents in the absence of cGMP were subtracted from all currents analyzed. KD values were determined and expressed as the mean±SD.

[2] = molecular target: T1, Butyrylcholinesterase purified from human blood serum (Homo sapiens, UniProt P06276); test: In vitro hydrolysis by serum cholinesterase (butyrylcholinesterase); type: in vitro ADME; settings: for hydrolysis product after incubation with butyrylcholinesterase: 24-hour incubation
T1 construct: Butyrylcholinesterase purified from human blood serum; purchased Sigma; host or cells: purified from human blood serum
T1 sequence (P06276 29-602): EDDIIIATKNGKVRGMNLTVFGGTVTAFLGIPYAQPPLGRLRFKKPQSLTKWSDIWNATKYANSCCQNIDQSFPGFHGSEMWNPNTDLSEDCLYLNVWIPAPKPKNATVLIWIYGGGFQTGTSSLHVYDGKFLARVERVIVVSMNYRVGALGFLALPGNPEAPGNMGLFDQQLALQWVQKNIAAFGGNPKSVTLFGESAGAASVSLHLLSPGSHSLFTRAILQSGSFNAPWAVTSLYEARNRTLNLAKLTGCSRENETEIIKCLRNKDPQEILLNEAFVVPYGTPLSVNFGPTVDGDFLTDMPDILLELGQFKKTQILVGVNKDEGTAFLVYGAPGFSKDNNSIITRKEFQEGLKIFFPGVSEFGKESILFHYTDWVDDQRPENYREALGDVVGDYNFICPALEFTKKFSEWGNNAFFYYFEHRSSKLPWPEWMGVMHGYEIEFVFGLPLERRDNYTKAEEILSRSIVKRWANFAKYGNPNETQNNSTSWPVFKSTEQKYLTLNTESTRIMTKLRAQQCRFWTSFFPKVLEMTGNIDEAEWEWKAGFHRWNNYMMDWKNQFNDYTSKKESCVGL
Method: Compound 1 is rapidly hydrolyzed by butyrylcholinesterase in the bloodstream. Butyrylcholinesterase purified from human blood serum was used to test the resistance of the disclosed compounds to hydrolysis.
All enzymatic assays were performed with 50 μM compound in 0.1M phosphate buffer, pH 7.4, at 37° C. with stirring, unless otherwise noted. Butyrylcholinesterase stock solutions from human serum (Sigma, St. Louis, Mo.) were prepared at 100 U/mL in 0.1 M phosphate buffer, pH 7.4, and stored at −20° C. until use. Hydrolysis was monitored on an 8452A diode array spectrophotometer (Hewlett-Packard). Product peak wavelength absorption was immediately monitored upon addition of compound. Absorbances for complete hydrolysis were determined when there were no further detectable changes. […] All hydrolysis assays were performed in triplicate, and final rate constants are expressed as the mean±SD of the three individually determined rate constants. In some experiments with compound 1, samples were taken at the beginning and end of the assay to verify the hydrolysis product and the completion of the reaction by HPLC. These samples were compared to compounds 1 and 3 on a C18 column eluted with 0.1% TFA in water/acetonitrile. Activity of chymotrypsin (bovine, Worthington Biochemical Co., 190 μg/mL) was verified with 90 μM 4-nitrophenyl acetate in 0.1 M HEPES solution, pH 6.5, at 37° C. with stirring. Hydrolysis product was monitored at 404 nm for 10 min. Activity of proteinase K (from Engyodontium album, Sigma, 165 μg/mL) was verified with 16.5 mg/mL bovine serum albumin in 0.1 M phosphate buffer, pH 7.4, at 37° C. Samples were taken at time point increments up to 2 hours when the reaction reached completion. Samples were analyzed with 12% SDS-PAGE, stained with 0.1% Coomassie Blue.

SMILES: CCCCCCCCNc1ccc(C(=O)OCCN(C)C)cc1 [Compound 5, 2-(Dimethylamino)ethyl 4-(Octylamino)benzoate, reference compound]
- state dependence of block (KD vs fraction of closed channels) [1]: better fit the results expected of a closed channel blocker
- Hydrolysis rate ([2]; 50 μM compound, 0.1M phosphate buffer pH 7.4, 37° C., mean±SD of triplicate): 213 ± 31 nmol/min/mg

SMILES: CCCCNc1ccc(C(=S)NCCN(C)C)cc1 [Compound 8, 4-(Butylamino)-N-(2-(dimethylamino)ethyl)benzothioamide]
- state dependence of block (KD vs fraction of closed channels) [1]: better fit the results expected of a closed channel blocker
- hydrolysis product after incubation with butyrylcholinesterase [2]: no hydrolysis product was detected

SMILES: CCCCCCCCNc1ccc(C(=S)NCCN(C)C)cc1 [Compound 9, 4-(Octylamino)-N-(2-(dimethylamino)ethyl)benzothioamide]
- state dependence of block (KD vs fraction of closed channels) [1]: better fit the results expected of a closed channel blocker
- hydrolysis product after incubation with butyrylcholinesterase [2]: no hydrolysis product was detected
